Experiment [1] has as its target JAK3 kinase (Homo sapiens (Human), UniProt P52333). Nature of the experiment: JAK3 Homogeneous Time Resolved Fluorescence (HTRF) Assay. The format is binding. The note with it: for IC50: competition binding with fluorescein-labeled ATP competitive probe; for Ratio of JAK3 IC50 to IRAK4 IC50: selectivity for IRAK4 over JAK3. A digest of the protocol: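 TR-FRET competition binding: 1 nM His- or GST-tagged JAK3 with 0.2 nM Tb-labeled anti-tag antibody, fluorescein ATP-competitive probe at its Kd, and compound for one hour. FRET read at 495/520 nm, normalized to no-compound signal. IC50 from 11 concentrations, 4-parameter logistic fit.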

In experiment [2] the target is IRAK4 (Homo sapiens (Human), UniProt Q9NWZ3). Nature of the experiment: IRAK4 Inhibition Assay. The format is biochemical. The note with it: ATP 500 μM; IRAK4 0.6 nM; 60 min room temperature. Put shortly: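 Reaction started by combining IRAK4 with substrates and compound, run 60 min at room temperature and stopped with 35 mM EDTA. Fluorescent substrate and phosphorylated product were separated electrophoretically on a Caliper LabChip; inhibition normalized to no-enzyme (100%) and vehicle-only (0%) controls.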

For experiment [3], the system named is TLR2 agonist-stimulated IL-6 in human whole blood. The experiment in a line: IRAK4 Whole Blood Assay. The note with it: lipoteichoic acid 10 μg/mL, 5 hours, IL-6 levels. The format is cell-based. How it is done:
Human whole blood containing the anti-coagulant ACD-A was plated in 384-well plate (25 μL/well) and incubated with compounds for 60 minutes at 37° C. in a 5% CO2 incubator. The blood was stimulated with a TLR2 agonist, 10 μg/mL final concentration of lipoteichoic acid (Invivogen, San Diego, CA) in 25 μL RPMI (Gibco) for 5 hours in a 5% CO2 incubator. At the end of the incubation, plates were centrifuged at 2300 rpm for 5 minutes. Supernatants were harvested and analyzed for IL-6 levels by Flow Cytometry beads assay (BD Biosciences, San Jose, CA).

As a reminder, the IC50 is the concentration needed to halve the response being measured.

Chain of IRAK4 (Q9NWZ3 whole entry, species assumed): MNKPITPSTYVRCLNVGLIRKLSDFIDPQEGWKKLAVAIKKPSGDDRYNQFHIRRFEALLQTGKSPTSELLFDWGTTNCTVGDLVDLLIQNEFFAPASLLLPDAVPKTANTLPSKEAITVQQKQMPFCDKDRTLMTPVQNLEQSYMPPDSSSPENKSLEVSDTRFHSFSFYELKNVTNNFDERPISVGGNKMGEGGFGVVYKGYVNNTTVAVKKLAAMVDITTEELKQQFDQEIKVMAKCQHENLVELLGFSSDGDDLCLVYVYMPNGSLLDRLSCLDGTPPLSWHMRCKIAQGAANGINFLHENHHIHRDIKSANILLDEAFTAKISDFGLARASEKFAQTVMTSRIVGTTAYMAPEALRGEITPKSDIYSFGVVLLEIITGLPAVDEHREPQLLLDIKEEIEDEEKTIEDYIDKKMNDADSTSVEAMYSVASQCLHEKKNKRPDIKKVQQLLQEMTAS
Chain of JAK3 kinase (P52333 whole entry): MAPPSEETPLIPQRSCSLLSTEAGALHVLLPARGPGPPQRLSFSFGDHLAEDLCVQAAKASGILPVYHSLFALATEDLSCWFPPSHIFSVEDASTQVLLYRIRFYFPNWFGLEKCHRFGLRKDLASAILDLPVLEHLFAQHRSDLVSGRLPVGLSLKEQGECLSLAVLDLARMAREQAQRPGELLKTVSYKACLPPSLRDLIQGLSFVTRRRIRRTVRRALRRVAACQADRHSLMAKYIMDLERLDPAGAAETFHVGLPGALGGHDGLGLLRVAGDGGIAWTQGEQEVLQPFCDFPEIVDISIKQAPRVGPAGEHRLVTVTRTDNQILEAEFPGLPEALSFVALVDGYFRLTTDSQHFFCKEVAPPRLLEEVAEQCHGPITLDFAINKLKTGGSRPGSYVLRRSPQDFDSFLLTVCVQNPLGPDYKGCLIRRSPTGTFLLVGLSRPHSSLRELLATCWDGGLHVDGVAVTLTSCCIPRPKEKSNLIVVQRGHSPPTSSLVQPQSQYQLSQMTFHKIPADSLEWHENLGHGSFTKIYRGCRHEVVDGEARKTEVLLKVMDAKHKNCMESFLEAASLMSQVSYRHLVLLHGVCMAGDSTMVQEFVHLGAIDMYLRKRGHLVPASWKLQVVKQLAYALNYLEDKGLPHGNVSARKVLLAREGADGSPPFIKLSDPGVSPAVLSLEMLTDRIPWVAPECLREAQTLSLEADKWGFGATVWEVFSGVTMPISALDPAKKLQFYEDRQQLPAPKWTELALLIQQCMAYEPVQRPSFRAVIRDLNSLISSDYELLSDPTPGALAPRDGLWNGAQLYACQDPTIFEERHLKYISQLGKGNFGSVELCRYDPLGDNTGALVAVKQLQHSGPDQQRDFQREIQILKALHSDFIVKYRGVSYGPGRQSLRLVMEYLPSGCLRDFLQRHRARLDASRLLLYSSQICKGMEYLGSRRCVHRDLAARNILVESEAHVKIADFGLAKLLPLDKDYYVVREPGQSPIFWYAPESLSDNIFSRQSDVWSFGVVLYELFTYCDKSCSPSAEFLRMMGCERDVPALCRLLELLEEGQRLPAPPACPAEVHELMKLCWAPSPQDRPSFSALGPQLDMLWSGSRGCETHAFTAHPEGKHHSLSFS

Take `COC(=O)Nc1cc(-c2cc3c(NC(C)C)c(C(=O)NC[C@@H](F)C(C)(C)O)cnn3c2)ccn1` [Example 46, methyl (R)-(4-(3-((2-fluoro-3-hydroxy-3-methylbutyl)carbamoyl)-4-(isopropylamino)pyrrolo[1,2-b]pyridazin-6-yl)pyridin-2-yl) carbamate]: the IC50 in experiment [1] is > 50 µM; in experiment [2], 0.0091 µM; in experiment [3], 6.23 µM. In experiment [1], the “Ratio of JAK3 IC50 to IRAK4 IC50” value is listed as >5495.
With `CC(C)Nc1c(C(=O)NC[C@@H](F)C(C)(C)O)cnn2cc(-c3cn[nH]c3)cc12` [Example 34, (R)—N-(2-fluoro-3-hydroxy-3-methylbutyl)-4-(isopropylamino)-6-(1H-pyrazol-4-yl) pyrrolo[1,2-b]pyridazine-3-carboxamide], the IC50 is > 10 µM in experiment [1], 0.0067 µM in experiment [2] and > 10 µM in experiment [3]. In addition, the “Ratio of JAK3 IC50 to IRAK4 IC50” value in experiment [1] is reported as >1493.
On to `CC(=O)N[C@H]1CC[C@H](NC(=O)c2cnn3c(Cl)c(-c4ccncc4)cc3c2NC(C)C)CC1` [Example 80, N-((1r,4r)-4-acetamidocyclohexyl)-7-chloro-4-(isopropylamino)-6-(pyridin-4-yl)pyrrolo[1,2-b]pyridazine-3-carboxamide], for which the results for the IC50 in experiment [1], in experiment [2] and in experiment [3] were ~35 µM, 0.002 µM and 0.72 µM, respectively. Further, in experiment [1], the “Ratio of JAK3 IC50 to IRAK4 IC50” value was ~17500.
Turning to `CC(C)CCNC(=O)c1cnn2cc(-c3ccncc3)cc2c1NC(C)C` [Example 64, N-isopentyl-4-(isopropylamino)-6-(pyridin-4-yl)pyrrolo[1,2-b]pyridazine-3-carboxamide], the results for the IC50 in experiment [1], in experiment [2] and in experiment [3] were ~29 µM, 0.014 µM and 8.91 µM, respectively. Besides, the “Ratio of JAK3 IC50 to IRAK4 IC50” value in experiment [1] is reported as ~2071.
Take `CC(C)Nc1c(C(=O)N[C@H]2CC[C@H](c3nc[nH]n3)CC2)cnn2cc(-c3ccncc3)cc12` [Example 90, N-((1r,4r)-4-(1H-1,2,4-triazol-3-yl)cyclohexyl)-4-(isopropylamino)-6-(pyridin-4-yl)pyrrolo[1,2-b]pyridazine-3-carboxamide]: the IC50 in experiment [1] worked out at 10 µM; in experiment [2], 0.0037 µM; in experiment [3], 0.63 µM. For the same compound, the “Ratio of JAK3 IC50 to IRAK4 IC50” value in experiment [1] turned out to be 2703.
On to `CC(=O)N[C@H]1CC[C@H](NC(=O)c2cnn3cc(-c4ccncc4)nc3c2NC(C)C)CC1` [Example 108, N-((1r,4r)-4-acetamidocyclohexyl)-8-(isopropylamino)-2-(pyridin-4-yl)imidazo[1,2-b]pyridazine-7-carboxamide], for which the values for the IC50 in experiment [1], in experiment [2] and in experiment [3] were ~49 µM, 0.011 µM and 0.89 µM, respectively. The “Ratio of JAK3 IC50 to IRAK4 IC50” value in experiment [1] is given as ~4455.
Consider `CC(C)Nc1c(C(=O)N[C@H]2CC[C@H](C(=O)N3CCOCC3)CC2)cnn2cc(-c3ccncc3F)cc12` [Example 84, 6-(3-fluoropyridin-4-yl)-4-(isopropylamino)-N-((1r,4r)-4-(morpholine-4-carbonyl)cyclohexyl)pyrrolo[1,2-b]pyridazine-3-carboxamide], for which the concentration for half-maximal inhibition (IC50) in experiment [1] was > 50 µM; in experiment [2] it was 0.0027 µM; in experiment [3], 1.04 µM. Further, in experiment [1], the “Ratio of JAK3 IC50 to IRAK4 IC50” value is on record as >18519.
For `CC(C)Nc1c(C(=O)NC[C@@H](F)C(C)(C)O)cnn2cc(-c3ccc(N)nc3)cc12` [Example 45, (R)-6-(6-aminopyridin-3-yl)-N-(2-fluoro-3-hydroxy-3-methylbutyl)-4-(isopropylamino) pyrrolo[1,2-b]pyridazine-3-carboxamide], the 50% inhibitory concentration (IC50) in experiment [1] was ~29 µM; in experiment [2] it was 0.0079 µM; in experiment [3] it was 4.68 µM. In addition, the “Ratio of JAK3 IC50 to IRAK4 IC50” value in experiment [1] is recorded as ~3671.
As to `CC(C)Nc1c(C(=O)NCCN2CCOCC2)cnn2cc(-c3ccncc3)cc12` [Example 63, 4-(isopropylamino)-N-(2-morpholinoethyl)-6-(pyridin-4-yl) pyrrolo[1,2-b]pyridazine-3-carboxamide], the 50% inhibitory concentration (IC50) in experiment [1] is > 50 µM; in experiment [2] it was 0.012 µM; in experiment [3] it was 2 µM. Moreover, in experiment [1], the “Ratio of JAK3 IC50 to IRAK4 IC50” value was >4167.
With `CC(C)Nc1c(C(=O)N[C@H]2CC[C@H](N)CC2)cnn2cc(-c3ccncc3)cc12` [Example 54, N-((1r,4r)-4-aminocyclohexyl)-4-(isopropylamino)-6-(pyridin-4-yl)pyrrolo[1,2-b]pyridazine-3-carboxamide], the values for the IC50 in experiment [1], in experiment [2] and in experiment [3] were > 50 µM, 0.0091 µM and 1.22 µM, respectively. In experiment [1], the “Ratio of JAK3 IC50 to IRAK4 IC50” value is on record as >5495.
With `CC(C)Nc1c(C(=O)NC[C@@H](F)C(C)(C)O)cnn2cc(-c3ccncc3)cc12` [Example 5, (R)—N-(2-fluoro-3-hydroxy-3-methylbutyl)-4-(isopropylamino)-6-(pyridin-4-yl)pyrrolo[1,2-b]pyridazine-3-carboxamide], the IC50 in experiment [1] was determined as 29 µM; in experiment [2] it was 0.0092 µM; in experiment [3], 4.6 µM. Moreover, the “Ratio of JAK3 IC50 to IRAK4 IC50” value in experiment [1] turned out to be 3152.
For `COC(=O)N[C@H]1CC[C@H](NC(=O)c2cnn3cc(-c4ccncc4)cc3c2NC(C)C)CC1` [Example 51, methyl ((1r,4r)-4-(4-(isopropylamino)-6-(pyridin-4-yl)pyrrolo[1,2-b]pyridazine-3-carboxamido)cyclohexyl)carbamate] the same measures were > 50 µM, 0.0028 µM, 1.76 µM and >17857.
For the compound `CC(C)Nc1c(C(=O)NCCN2CCOCC2)cnn2cc(-c3ccncc3F)cc12` [Example 71, 6-(3-fluoropyridin-4-yl)-4-(isopropylamino)-N-(2-morpholinoethyl)pyrrolo[1,2-b]pyridazine-3-carboxamide], the figures for the IC50 in experiment [1], in experiment [2] and in experiment [3] were 7 µM, 0.0072 µM and > 10 µM, respectively. The “Ratio of JAK3 IC50 to IRAK4 IC50” value in experiment [1] was determined as 972.
On to `CC(C)Nc1c(C(=O)N[C@H]2CC[C@H](c3nc[nH]n3)CC2)cnn2cc(-c3ccc(F)nc3)cc12` [Example 92, N-((1r,4r)-4-(1H-1,2,4-triazol-3-yl)cyclohexyl)-6-(6-fluoropyridin-3-yl)-4-(isopropylamino)pyrrolo[1,2-b]pyridazine-3-carboxamide], for which the 50% inhibitory concentration (IC50) was > 50 µM in experiment [1], 0.01 µM in experiment [2] and 6.97 µM in experiment [3]. The “Ratio of JAK3 IC50 to IRAK4 IC50” value in experiment [1] is >5000.
On to `CC(C)Nc1c(C(=O)NCCC(C)(C)O)cnn2cc(-c3ccncc3)cc12` [Example 62, N-(3-hydroxy-3-methylbutyl)-4-(isopropylamino)-6-(pyridin-4-yl)pyrrolo[1,2-b]pyridazine-3-carboxamide], for which the half-maximal inhibitory concentration (IC50) was > 50 µM in experiment [1], 0.0084 µM in experiment [2] and 2.01 µM in experiment [3]. In addition, in experiment [1], the “Ratio of JAK3 IC50 to IRAK4 IC50” value is >5952.
In the case of `CC(=O)N[C@H]1CC[C@H](NC(=O)c2cnn3cc(-c4ccncc4)cc3c2NC(C)C)CC1` [Example 50, N-((1r,4r)-4-acetamidocyclohexyl)-4-(isopropylamino)-6-(pyridin-4-yl)pyrrolo[1,2-b]pyridazine-3-carboxamide], the values for the IC50 in experiment [1], in experiment [2] and in experiment [3] were ~39 µM, 0.0021 µM and 0.9 µM, respectively. In addition, the “Ratio of JAK3 IC50 to IRAK4 IC50” value in experiment [1] is ~18571.
Turning to `CC(=O)N[C@H]1CC[C@H](NC(=O)c2cnn3cc(-c4cnccc4C)cc3c2NC(C)C)CC1` [Example 70, N-((1r,4r)-4-acetamidocyclohexyl)-4-(isopropylamino)-6-(4-methylpyridin-3-yl)pyrrolo[1,2-b] pyridazine-3-carboxamide], the IC50 in experiment [1] is > 50 µM; in experiment [2], 0.014 µM; in experiment [3], > 10 µM. The “Ratio of JAK3 IC50 to IRAK4 IC50” value in experiment [1] is given as >3571.
Consider `CC(=O)N[C@H]1CC[C@H](NC(=O)c2cnn3cc(-c4cccnc4F)cc3c2NC(C)C)CC1` [Example 69, N-((1r,4r)-4-acetamidocyclohexyl)-6-(2-fluoropyridin-3-yl)-4-(isopropylamino)pyrrolo[1,2-b]pyridazine-3-carboxamide], for which the results for the IC50 in experiment [1], in experiment [2] and in experiment [3] were ~42 µM, 0.0092 µM and 7.01 µM, respectively. The “Ratio of JAK3 IC50 to IRAK4 IC50” value in experiment [1] is on record as ~4565.
`CNC(=O)[C@H]1CC[C@H](NC(=O)c2cnn3cc(-c4ccncc4F)cc3c2NC(C)C)CC1` [Example 87, 6-(3-fluoropyridin-4-yl)-4-(isopropylamino)-N-((1r,4r)-4-(methylcarbamoyl)cyclohexyl) pyrrolo[1,2-b]pyridazine-3-carboxamide]: the IC50 in experiment [1] is > 50 µM; in experiment [2], 0.0031 µM; in experiment [3], 0.26 µM. The “Ratio of JAK3 IC50 to IRAK4 IC50” value in experiment [1] was >16129.
Consider `CC(=O)N[C@H]1CC[C@H](NC(=O)c2cnn3cc(-c4cccnc4)cc3c2NC(C)C)CC1` [Example 48, N-((1r,4r)-4-acetamidocyclohexyl)-4-(isopropylamino)-6-(pyridin-3-yl)pyrrolo[1,2-b]pyridazine-3-carboxamide], for which the half-inhibitory concentration (IC50) is > 50 µM in experiment [1], 0.0059 µM in experiment [2] and 0.85 µM in experiment [3]. Also, the “Ratio of JAK3 IC50 to IRAK4 IC50” value in experiment [1] is on record as >8475.

These data come from patent US12570659B2, “Bicyclic heteroaryl compounds useful as IRAK4 inhibitors” (BRISTOL-MYERS SQUIBB COMPANY, priority 2019, dated 2026).
